# Source: PMC12207590, “Substrate Specificity of the Organic Cation Transporters MATE1 and MATE2K and Functional Overlap with OCT1 and OCT2” (Journal of Medicinal Chemistry, 2025)
# Where two headings read alike, the source gives them in different places.
# Tests used:
# [1] = target: MATE2K (Homo sapiens, UniProt Q86VL8); assay: Uptake ratio in MATE2K-overexpressing HEK293 cells vs empty vector (2.5 μM, 1 min, HPLC-MS/MS); assay type: cell-based
# [2] = target: T1, MATE1 (Homo sapiens, UniProt Q96FL8); assay: Uptake ratio in MATE1-overexpressing HEK293 cells vs empty vector (2.5 μM, 1 min, HPLC-MS/MS); assay type: cell-based
# T1 sequence (Q96FL8 1-570): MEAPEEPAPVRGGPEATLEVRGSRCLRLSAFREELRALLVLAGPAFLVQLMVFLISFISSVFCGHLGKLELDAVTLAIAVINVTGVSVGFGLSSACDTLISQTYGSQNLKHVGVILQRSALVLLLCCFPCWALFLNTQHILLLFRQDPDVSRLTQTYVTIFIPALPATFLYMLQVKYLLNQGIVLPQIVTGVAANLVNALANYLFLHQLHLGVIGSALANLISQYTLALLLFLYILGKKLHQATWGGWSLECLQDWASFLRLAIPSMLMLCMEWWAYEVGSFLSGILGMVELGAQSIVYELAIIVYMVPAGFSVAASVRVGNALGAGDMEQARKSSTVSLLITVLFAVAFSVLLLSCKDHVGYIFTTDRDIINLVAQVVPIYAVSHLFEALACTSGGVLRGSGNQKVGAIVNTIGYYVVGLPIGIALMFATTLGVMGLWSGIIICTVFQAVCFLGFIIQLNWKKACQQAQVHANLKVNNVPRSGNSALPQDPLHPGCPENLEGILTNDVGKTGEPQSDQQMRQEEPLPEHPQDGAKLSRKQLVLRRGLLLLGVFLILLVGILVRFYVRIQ
# [3] = fold uptake over empty vector, 2.5 μM, 1 min
# [4] = mean ratio of uptake in MATE2K-overexpressing HEK293 cells vs empty vector, 2.5 μM, 1 min
# [5] = mean ratio of uptake in MATE1-overexpressing HEK293 cells vs empty vector, 2.5 μM, 1 min
# MATE2K, sequence (Q86VL8 1-566 isoform Q86VL8-3): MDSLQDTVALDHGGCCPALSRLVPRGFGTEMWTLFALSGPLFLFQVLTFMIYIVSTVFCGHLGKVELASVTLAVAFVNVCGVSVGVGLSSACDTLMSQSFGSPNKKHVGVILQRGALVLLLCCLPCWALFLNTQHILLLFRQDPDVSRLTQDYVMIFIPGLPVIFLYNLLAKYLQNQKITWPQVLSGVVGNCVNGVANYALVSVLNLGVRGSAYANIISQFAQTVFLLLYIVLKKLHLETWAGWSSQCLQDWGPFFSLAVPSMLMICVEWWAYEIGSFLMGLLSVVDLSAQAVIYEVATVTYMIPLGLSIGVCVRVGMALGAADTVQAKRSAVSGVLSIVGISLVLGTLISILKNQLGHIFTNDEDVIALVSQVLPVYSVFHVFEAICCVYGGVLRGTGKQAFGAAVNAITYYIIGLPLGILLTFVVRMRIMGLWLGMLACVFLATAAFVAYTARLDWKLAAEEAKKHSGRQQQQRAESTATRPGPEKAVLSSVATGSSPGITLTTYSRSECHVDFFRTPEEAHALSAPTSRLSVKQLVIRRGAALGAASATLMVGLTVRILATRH
SMILES,"MATE2K ratio [1, 3]","MATE2 (uptake ratio) [1, 4]","MATE1 ratio [2, 3]","MATE1 (uptake ratio) [2, 5]",other results
Cc1ccc(C(=O)Oc2ccc(C(O)CNC(C)(C)C)cc2OC(=O)c2ccc(C)cc2)cc1 (centres unmarked) [Bitolterol],0.57,0.57,0.38,0.38,
CC(C)C[C@H](NC(=O)[C@H](Cc1ccccc1)NC(=O)c1cnccn1)B(O)O [Bortezomib],1.10,1.1,1.20,1.2,
COc1cc2c(cc1OC)[C@@]13CCN4CC5=CCO[C@H]6CC(=O)N2[C@H]1[C@H]6[C@H]5C[C@H]43 [Brucine],,,,,MATE2 (uptake ratio) [1]: 1.3; MATE2K ratio [1]: 1.30; MATE1 (uptake ratio) [2]: 1.13; MATE1 ratio [2]: 1.13
CCCCNC(=N)NC(=N)N [Buformin],,,,,MATE2 (uptake ratio) [1]: 2.37; MATE2K ratio [1]: 2.37; MATE1 (uptake ratio) [2]: 24.8; MATE1 ratio [2]: 24.80
CCCCNc1cc(C(=O)O)cc(S(N)(=O)=O)c1Oc1ccccc1 [Bumetanide],1.18,1.18,2.02,2.02,substrate of MATE1 ([2]; organic anions tested): substrates of MATE1
CC(C)(C)NCC(O)COc1ccccc1C#N (centres unmarked) [Bunitrolol],1.31,1.31,1.17,1.17,
CCCC[N+]1(C)[C@@H]2C[C@@H](OC(=O)[C@H](CO)c3ccccc3)C[C@H]1[C@@H]1O[C@@H]12 (some centres unmarked) [Butylscopolamine],,,,,MATE2 (uptake ratio) [1]: 1.7; MATE2K ratio [1]: 1.70; MATE2K ratio in this study [1]: 1.70; MATE1 (uptake ratio) [2]: 23.84; MATE1 ratio [2]: 23.84; MATE1 ratio in this study [2]: 23.84
CCCC(=O)OC(CC(=O)[O-])C[N+](C)(C)C (centres unmarked) [Butyrylcarnitine],1.09,1.09,0.82,0.82,
NCCCCCN [Cadaverine],,,,,MATE2 (uptake ratio) [1]: 0.53; MATE2K ratio [1]: 0.53; MATE1 (uptake ratio) [2]: 0.23; MATE1 ratio [2]: 0.23
COc1cc(CNC(=O)CCCC/C=C/C(C)C)ccc1O [Capsaicin],0.99,0.99,1.18,1.18,
C[N+](C)(C)C[C@H](O)CC(=O)[O-] [Carnitine],,,,,MATE2 (uptake ratio) [1]: 1.13; MATE2K ratio [1]: 1.13; MATE1 (uptake ratio) [2]: 1.16; MATE1 ratio [2]: 1.16
NCCC(=O)N[C@@H](Cc1cnc[nH]1)C(=O)O [Carnosine],1.03,1.03,0.18,0.18,
CC(C)(C)NCC(O)COc1cccc2c1CCC(=O)N2 (centres unmarked) [Carteolol],6.67,6.67,7.43,7.43,
"COc1ccccc1OCCNCC(O)COc1cccc2[nH]c3ccccc3c12 [Carvedilol (R), Carvedilol]",1.08,1.08,1.17,1.17,
"COc1ccccc1OCCNCC(O)COc1cccc2[nH]c3ccccc3c12 [Carvedilol (S), Carvedilol]",1.18,1.18,1.19,1.19,
CCN(CC)C(=O)Nc1ccc(OCC(O)CNC(C)(C)C)c(C(C)=O)c1 (centres unmarked) [Celiprolol],8.76,8.76,11.01,11.01,
C[C@@H]1O[C@@]2(CS1)CN1CCC2CC1 [Cevimeline],1.35,1.35,1.59,1.59,
[H]/N=C(\N/C(=N/[H])NCCCCCCNC(=N)NC(=N)Nc1ccc(Cl)cc1)Nc1ccc(Cl)cc1 [Chlorhexidine],0.99,0.99,1.08,1.08,
CN(C)CCCN1c2ccccc2Sc2ccc(Cl)cc21 [Chlorpromazine],1.33,1.33,1.42,1.42,
CC1(C)C[C@@H]1C(=O)N/C(=C\CCCCSC[C@H](N)C(=O)O)C(=O)O [Cilastatin],,,,,MATE2 (uptake ratio) [1]: 0.96; MATE2K ratio [1]: 0.96; MATE1 (uptake ratio) [2]: 1.13; MATE1 ratio [2]: 1.13
C=C[C@H]1CN2CC[C@H]1C[C@H]2[C@H](O)c1ccnc2ccccc12 [Cinchonidine],,,,,MATE2 (uptake ratio) [1]: 1.14; MATE2K ratio [1]: 1.14; MATE1 (uptake ratio) [2]: 1.16; MATE1 ratio [2]: 1.16
NC(=O)NCCC[C@H](N)C(=O)O [Citrulline],,,,,MATE2 (uptake ratio) [1]: 1.26; MATE2K ratio [1]: 1.26; MATE1 (uptake ratio) [2]: 0.77; MATE1 ratio [2]: 0.77
CC[C@H]1OC(=O)[C@H](C)[C@@H](O[C@H]2C[C@@](C)(OC)[C@@H](O)[C@H](C)O2)[C@H](C)[C@@H](O[C@@H]2O[C@H](C)C[C@H](N(C)C)[C@H]2O)[C@](C)(OC)C[C@@H](C)C(=O)[C@H](C)[C@@H](O)[C@]1(C)O [Clarithromycin],1.31,1.31,1.21,1.21,
C[N+]12CCC(CC1)C(OC(=O)C(O)(c1ccccc1)c1ccccc1)C2 (centres unmarked) [Clidinium],1.79,1.79,16.18,16.18,

SMILES,"MATE2K ratio [1, 3]","MATE2 (uptake ratio) [1, 4]","MATE1 ratio [2, 3]","MATE1 (uptake ratio) [2, 5]",other results
Clc1cccc(Cl)c1N=C1NCCN1 [Clonidine],1.17,1.17,1.11,1.11,
CC(C)(C)NCC(O)c1ccc(O)c(O)c1 (centres unmarked) [Colterol],5.80,5.8,10.79,10.79,
Cc1oc2nc3c(c(NC(=O)CN4CCCC4=O)c2c1C)CCCC3 [Coluracetam],0.97,,0.97,,
CN1C(=O)CC[C@H]1c1cccnc1 [Cotinine],1.20,,1.11,,
CN(CC(=O)O)C(=N)N [Creatine],,,,,MATE2K ratio [1]: 1.07; MATE1 ratio [2]: 1.01
CN1CC(=O)NC1=N [Creatinine],1.07,,0.83,,"MATE2K ratio in this study ([1]; Table S1, 2.5 μM, 1 min): 1.07; MATE1 ratio in this study ([2]; Table S1, 2.5 μM, 1 min): 0.83"
CN(C)CCOC(=O)C(c1ccccc1)C1(O)CCCC1 (centres unmarked) [Cyclopentolate],1.34,,1.09,,
O=c1cccc2n1C[C@@H]1CNC[C@H]2C1 [Cytisine],,,,,MATE2K ratio [1]: 1.17; MATE1 ratio [2]: 1.95
Nc1ccc(S(=O)(=O)c2ccc(N)cc2)cc1 [Dapsone],0.95,,0.89,,
N=C(N)N1CCc2ccccc2C1 [Debrisoquine],5.05,,8.16,,"MATE2K ratio in this study ([1]; Table S1, 2.5 μM, 1 min): 5.05; MATE1 ratio in this study ([2]; Table S1, 2.5 μM, 1 min): 8.16"
Nc1ncn([C@H]2C[C@H](O)[C@@H](CO)O2)c(=O)n1 [Decitabine],1.04,,1.13,,
COc1cc2c(cc1OC)-c1c(C)c3ccc(OC)c(OC)c3c[n+]1CC2 [Dehydrocorydaline],,,,,MATE2K ratio [1]: 2.85; MATE1 ratio [2]: 9.25
CC(C)Nc1cccnc1N1CCN(C(=O)c2cc3cc(NS(C)(=O)=O)ccc3[nH]2)CC1 [Delavirdine],1.09,,1.19,,
"COc1ccc(CCNC[C@H](O)c2ccc(O)cc2)cc1OC [Denopamine (R), Denopamine]",1.69,,2.32,,
CNCCc1ccc(O)c(O)c1 [Deoxyepinephrine],3.40,,34.31,,
CC(C1=C(CCN(C)C)Cc2ccccc21)c1ccccn1 (centres unmarked) [Dimethindene],1.02,,0.99,,
C[N+]1(C)CCN(c2ccccc2)CC1 [Dimethylphenylpiperazinium],,,,,MATE2K ratio [1]: 4.30; MATE1 ratio [2]: 29.06
OCCN(CCO)c1nc(N2CCCCC2)c2nc(N(CCO)CCO)nc(N3CCCCC3)c2n1 [Dipyridamole],1.13,,1.11,,
CC(C)N(CCC(C(N)=O)(c1ccccc1)c1ccccn1)C(C)C (centres unmarked) [Disopyramide],1.21,,1.26,,
"CN(C)CCC=C1c2ccccc2COc2ccccc21 [Doxepin (E), Doxepin]",1.08,,1.26,,
"CN(C)CCC=C1c2ccccc2COc2ccccc21 [Doxepin (Z), Doxepin]",1.09,,1.28,,
CCC1(C2=NCCN2)Cc2ccccc2O1 (centres unmarked) [Efaroxan],1.72,,1.38,,
CC/C(=C(\c1ccc(O)cc1)c1ccc(OCCNC)cc1)c1ccccc1 [Endoxifen],1.21,,1.30,,
COc1cc2c(cc1OC)-c1cc3ccc4c(c3c[n+]1CC2)OCO4 [Epiberberine],,,,,MATE2K ratio [1]: 5.89; MATE1 ratio [2]: 12.54
